Active and inactive are the calls of the source. The rule behind the calls is not given here.
What was measured:
[1] = target: T1, Tyrosine-protein phosphatase non-receptor type 11 (Homo sapiens, UniProt Q06124); experiment: Inhibition of SHP2 (unknown origin)
T1 sequence (Q06124 whole entry): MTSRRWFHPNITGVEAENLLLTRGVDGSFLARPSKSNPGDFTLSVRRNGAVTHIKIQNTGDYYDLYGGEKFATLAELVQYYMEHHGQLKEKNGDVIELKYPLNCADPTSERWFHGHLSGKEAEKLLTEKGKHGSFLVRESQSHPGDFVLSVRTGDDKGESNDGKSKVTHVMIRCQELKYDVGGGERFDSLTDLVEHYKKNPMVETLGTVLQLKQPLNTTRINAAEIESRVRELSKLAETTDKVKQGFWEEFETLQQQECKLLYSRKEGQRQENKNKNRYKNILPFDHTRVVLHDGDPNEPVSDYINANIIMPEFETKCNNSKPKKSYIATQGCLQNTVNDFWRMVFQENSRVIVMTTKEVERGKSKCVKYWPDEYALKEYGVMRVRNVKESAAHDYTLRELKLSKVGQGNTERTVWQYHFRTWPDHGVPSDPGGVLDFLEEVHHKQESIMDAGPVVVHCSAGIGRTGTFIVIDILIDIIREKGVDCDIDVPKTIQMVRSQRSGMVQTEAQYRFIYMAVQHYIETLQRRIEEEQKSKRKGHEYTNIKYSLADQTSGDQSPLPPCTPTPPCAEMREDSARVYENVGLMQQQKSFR

[2] = target: T2, Tyrosine-protein phosphatase non-receptor type 1 (Homo sapiens, UniProt P18031); experiment: Inhibition of PTP1B (unknown origin)
T2 sequence (P18031 whole entry): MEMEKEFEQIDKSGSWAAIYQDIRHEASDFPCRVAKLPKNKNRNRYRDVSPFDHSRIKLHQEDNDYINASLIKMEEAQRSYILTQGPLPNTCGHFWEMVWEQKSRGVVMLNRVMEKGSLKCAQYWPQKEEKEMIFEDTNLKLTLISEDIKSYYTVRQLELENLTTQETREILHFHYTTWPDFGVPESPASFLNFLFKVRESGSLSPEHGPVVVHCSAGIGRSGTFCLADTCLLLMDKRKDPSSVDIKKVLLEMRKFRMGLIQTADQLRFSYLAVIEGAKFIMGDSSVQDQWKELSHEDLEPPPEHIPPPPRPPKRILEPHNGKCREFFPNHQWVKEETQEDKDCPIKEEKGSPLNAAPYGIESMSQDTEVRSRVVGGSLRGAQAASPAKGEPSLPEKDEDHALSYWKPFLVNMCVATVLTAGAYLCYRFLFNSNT

[3] = target: T3, M-phase inducer phosphatase 2 (Homo sapiens) (UniProt P30305); experiment: Inhibition of Cdc25B (unknown origin) at 5 ug/ml
T3 sequence (whole entry): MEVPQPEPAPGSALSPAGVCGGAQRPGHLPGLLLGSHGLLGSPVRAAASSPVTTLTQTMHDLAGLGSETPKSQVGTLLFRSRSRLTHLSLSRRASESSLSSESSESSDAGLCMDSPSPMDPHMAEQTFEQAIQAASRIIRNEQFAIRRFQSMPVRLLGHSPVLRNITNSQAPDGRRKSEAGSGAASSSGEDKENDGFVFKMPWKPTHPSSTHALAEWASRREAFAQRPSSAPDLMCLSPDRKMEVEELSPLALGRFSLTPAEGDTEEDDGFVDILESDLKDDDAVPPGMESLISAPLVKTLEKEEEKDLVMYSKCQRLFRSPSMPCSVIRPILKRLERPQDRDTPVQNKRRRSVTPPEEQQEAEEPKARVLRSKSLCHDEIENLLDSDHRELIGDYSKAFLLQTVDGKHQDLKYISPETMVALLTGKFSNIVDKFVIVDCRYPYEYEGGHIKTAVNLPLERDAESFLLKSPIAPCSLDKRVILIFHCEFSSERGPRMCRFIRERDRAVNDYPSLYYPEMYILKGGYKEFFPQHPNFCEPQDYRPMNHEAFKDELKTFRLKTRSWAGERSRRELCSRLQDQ

[4] = target: Tyrosine-protein phosphatase non-receptor type 6 (Homo sapiens, UniProt P29350); experiment: Inhibition of SHP1 (unknown origin)
[5] = target: T4, Tyrosine-protein phosphatase non-receptor type 2 (Homo sapiens, UniProt P17706); experiment: Inhibition of TCPTP (unknown origin)
T4 sequence (P17706 whole entry): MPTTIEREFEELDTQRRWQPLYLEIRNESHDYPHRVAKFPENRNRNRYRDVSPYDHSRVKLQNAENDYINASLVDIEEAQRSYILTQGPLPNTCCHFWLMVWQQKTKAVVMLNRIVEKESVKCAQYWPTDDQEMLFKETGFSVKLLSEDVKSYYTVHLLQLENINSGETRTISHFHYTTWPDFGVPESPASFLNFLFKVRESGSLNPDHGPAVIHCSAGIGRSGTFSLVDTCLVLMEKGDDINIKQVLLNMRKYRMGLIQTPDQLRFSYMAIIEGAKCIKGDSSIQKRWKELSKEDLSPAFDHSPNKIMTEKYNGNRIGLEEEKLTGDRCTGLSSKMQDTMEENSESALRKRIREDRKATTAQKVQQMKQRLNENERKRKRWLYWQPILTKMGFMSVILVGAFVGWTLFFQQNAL

[6] = target: T5, Tyrosine-protein phosphatase non-receptor type 1 (Homo sapiens) (UniProt P18031); experiment: Inhibition of PTP1B (unknown origin) at 5 ug/ml
T5 sequence (whole entry): T2 sequence (P18031 whole entry)

[7] = target: Receptor-type tyrosine-protein phosphatase F (Homo sapiens, UniProt P10586); experiment: Inhibition of LAR (unknown origin)
[8] = target: T6, M-phase inducer phosphatase 2 (Homo sapiens, UniProt P30305); experiment: Inhibition of Cdc25B (unknown origin)
T6 sequence (P30305 whole entry): T3 sequence (whole entry)

[9] = target: T5, Tyrosine-protein phosphatase non-receptor type 1 (Homo sapiens); experiment: Mixed inhibition of PTP1B (unknown origin) by Lineweaver-Burk plot

Sequence of Tyrosine-protein phosphatase non-receptor type 6 (P29350 whole entry): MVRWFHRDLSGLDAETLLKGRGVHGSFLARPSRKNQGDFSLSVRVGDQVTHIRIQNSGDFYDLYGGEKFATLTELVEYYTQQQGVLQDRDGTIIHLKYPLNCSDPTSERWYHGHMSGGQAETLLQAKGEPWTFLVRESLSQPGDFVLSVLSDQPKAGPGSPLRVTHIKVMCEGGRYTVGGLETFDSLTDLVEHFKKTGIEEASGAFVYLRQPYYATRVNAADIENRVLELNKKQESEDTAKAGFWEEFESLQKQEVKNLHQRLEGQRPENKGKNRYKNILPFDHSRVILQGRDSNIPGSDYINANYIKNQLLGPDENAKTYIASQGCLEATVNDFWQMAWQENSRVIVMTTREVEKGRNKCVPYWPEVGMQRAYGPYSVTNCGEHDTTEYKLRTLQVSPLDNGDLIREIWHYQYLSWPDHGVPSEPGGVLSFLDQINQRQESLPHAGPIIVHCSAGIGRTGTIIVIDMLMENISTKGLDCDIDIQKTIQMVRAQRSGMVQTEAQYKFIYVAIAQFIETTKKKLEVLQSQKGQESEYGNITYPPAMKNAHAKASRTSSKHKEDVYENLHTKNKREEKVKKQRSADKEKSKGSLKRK
Sequence of Receptor-type tyrosine-protein phosphatase F (P10586 whole entry): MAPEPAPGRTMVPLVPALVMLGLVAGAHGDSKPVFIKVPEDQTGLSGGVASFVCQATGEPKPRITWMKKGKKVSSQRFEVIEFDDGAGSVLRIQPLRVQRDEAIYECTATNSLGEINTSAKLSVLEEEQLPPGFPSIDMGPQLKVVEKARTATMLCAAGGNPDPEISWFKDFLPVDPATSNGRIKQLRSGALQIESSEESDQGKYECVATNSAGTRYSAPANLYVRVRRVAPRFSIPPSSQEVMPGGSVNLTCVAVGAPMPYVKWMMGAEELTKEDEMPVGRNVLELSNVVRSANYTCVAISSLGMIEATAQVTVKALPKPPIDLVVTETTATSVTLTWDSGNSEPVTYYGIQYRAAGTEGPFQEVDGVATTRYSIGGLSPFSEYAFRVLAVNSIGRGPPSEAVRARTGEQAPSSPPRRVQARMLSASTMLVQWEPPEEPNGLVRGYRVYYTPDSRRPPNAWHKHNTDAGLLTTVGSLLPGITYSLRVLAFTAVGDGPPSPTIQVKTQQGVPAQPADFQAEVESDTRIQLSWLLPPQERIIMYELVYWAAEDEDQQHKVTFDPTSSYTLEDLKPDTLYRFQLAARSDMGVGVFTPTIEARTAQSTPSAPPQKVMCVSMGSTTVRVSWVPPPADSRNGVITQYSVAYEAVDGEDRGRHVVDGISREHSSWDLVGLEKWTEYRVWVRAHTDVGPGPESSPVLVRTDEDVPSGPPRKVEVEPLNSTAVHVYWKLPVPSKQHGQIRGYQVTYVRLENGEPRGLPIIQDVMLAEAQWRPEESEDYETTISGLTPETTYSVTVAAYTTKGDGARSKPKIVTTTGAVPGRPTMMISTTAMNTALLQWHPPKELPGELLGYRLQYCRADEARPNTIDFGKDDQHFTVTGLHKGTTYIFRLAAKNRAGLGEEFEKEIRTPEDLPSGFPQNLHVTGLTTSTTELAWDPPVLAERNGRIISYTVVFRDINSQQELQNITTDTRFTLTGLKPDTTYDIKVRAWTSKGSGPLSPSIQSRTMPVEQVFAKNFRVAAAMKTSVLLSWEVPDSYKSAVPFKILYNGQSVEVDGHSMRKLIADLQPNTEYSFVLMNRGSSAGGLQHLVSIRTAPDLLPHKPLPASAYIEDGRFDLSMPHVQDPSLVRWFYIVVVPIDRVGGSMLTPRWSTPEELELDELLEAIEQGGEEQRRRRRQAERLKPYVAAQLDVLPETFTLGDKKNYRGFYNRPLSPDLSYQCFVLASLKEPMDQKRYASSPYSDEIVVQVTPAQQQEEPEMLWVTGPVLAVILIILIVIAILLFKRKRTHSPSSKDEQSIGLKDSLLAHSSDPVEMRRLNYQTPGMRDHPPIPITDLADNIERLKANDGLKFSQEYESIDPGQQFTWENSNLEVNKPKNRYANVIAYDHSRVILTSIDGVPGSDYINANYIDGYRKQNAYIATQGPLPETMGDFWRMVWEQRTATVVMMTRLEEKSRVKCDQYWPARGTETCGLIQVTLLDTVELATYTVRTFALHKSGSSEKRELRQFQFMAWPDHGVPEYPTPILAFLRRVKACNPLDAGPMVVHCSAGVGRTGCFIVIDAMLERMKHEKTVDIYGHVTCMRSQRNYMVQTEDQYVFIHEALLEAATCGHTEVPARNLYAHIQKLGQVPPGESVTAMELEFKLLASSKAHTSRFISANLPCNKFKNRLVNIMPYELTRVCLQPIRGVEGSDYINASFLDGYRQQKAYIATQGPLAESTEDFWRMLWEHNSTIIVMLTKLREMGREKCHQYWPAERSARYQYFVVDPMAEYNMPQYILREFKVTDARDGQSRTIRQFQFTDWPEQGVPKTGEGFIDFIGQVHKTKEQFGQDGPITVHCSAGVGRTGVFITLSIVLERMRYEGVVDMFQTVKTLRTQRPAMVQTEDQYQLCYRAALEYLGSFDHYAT

| Compound | IC50 [1] | IC50 [2] | inhibition [3] | IC50 [4] | IC50 [5] | inhibition [6] | IC50 [7] | IC50 [8] | inhibition [9] |
| --- | --- | --- | --- | --- | --- | --- | --- | --- | --- |
| O=C(Nc1nnc(-c2ccc(Oc3ccc([N+](=O)[O-])cc3[N+](=O)[O-])cc2)s1)c1cccc([N+](=O)[O-])c1 | Not Active | 2.67 µM | 99.2% | Not Active | Not Active | 85.6% | Not Active | 2.52 µM | Active |
| O=C(Nc1nnc(-c2ccc(Oc3ccc([N+](=O)[O-])cc3)cc2)s1)c1ccco1 | Not Active | 11.3 µM | 87.7% | Not Active | Not Active | 75.1% | Not Active | 6.44 µM | – |
| O=C(Nc1nnc(-c2ccc(Oc3ccc([N+](=O)[O-])cc3[N+](=O)[O-])cc2)s1)c1ccc([N+](=O)[O-])cc1 | Not Active | 15.8 µM | 97.7% | Not Active | Not Active | 81.8% | Not Active | 9.4 µM | – |
| O=C(Nc1nnc(-c2ccc(Oc3ccc([N+](=O)[O-])cc3)cc2)s1)c1ccccc1F | Not Active | 17.1 µM | 63.6% | Not Active | Not Active | 60.6% | Not Active | 10.2 µM | – |
| O=C(Nc1nnc(-c2ccc(Oc3ccc([N+](=O)[O-])cc3)cc2)s1)c1ccccc1 | Not Active | 9.89 µM | 86.3% | Not Active | Not Active | 79.6% | Not Active | 7.79 µM | – |
| O=C(Nc1nnc(-c2ccc(Oc3ccc([N+](=O)[O-])cc3[N+](=O)[O-])cc2)s1)c1ccccc1[N+](=O)[O-] | Not Active | 8.12 µM | 88.3% | Not Active | Not Active | 87.4% | Not Active | 15.8 µM | – |

More lines, in order of falling IC50 [2], values ahead:

| IC50 [1] | IC50 [2] | inhibition [3] | IC50 [4] | IC50 [5] | inhibition [6] | IC50 [7] | IC50 [8] | Compound | inhibition [9] |
| --- | --- | --- | --- | --- | --- | --- | --- | --- | --- |
| Not Active | 8.44 µM | 93.7% | Not Active | Not Active | 84% | Not Active | 6.51 µM | Cc1ccccc1C(=O)Nc1nnc(-c2ccc(Oc3ccc([N+](=O)[O-])cc3[N+](=O)[O-])cc2)s1 | – |
| Not Active | 6.07 µM | 88.9% | Not Active | Not Active | 82.1% | Not Active | 5.69 µM | O=C(Cc1cccc2ccccc12)Nc1nnc(-c2ccc(Oc3ccc([N+](=O)[O-])cc3[N+](=O)[O-])cc2)s1 | – |
| Not Active | 4.11 µM | 91.7% | Not Active | Not Active | 90.9% | Not Active | 3.29 µM | O=C(Cc1ccccc1)Nc1nnc(-c2ccc(Oc3ccc([N+](=O)[O-])cc3[N+](=O)[O-])cc2)s1 | – |
| Not Active | 3.6 µM | 96.4% | Not Active | Not Active | 95.2% | Not Active | 8.54 µM | O=C(Nc1nnc(-c2ccc(Oc3ccc([N+](=O)[O-])cc3)cc2)s1)c1ccc([N+](=O)[O-])cc1 | – |
| Not Active | 3.51 µM | 99.3% | Not Active | Not Active | 88.4% | Not Active | 5.42 µM | O=C(Nc1nnc(-c2ccc(Oc3ccc([N+](=O)[O-])cc3[N+](=O)[O-])cc2)s1)c1ccccc1F | – |

From ChEMBL document CHEMBL3352415, “Synthesis and biological evaluation of novel thiadiazole amides as potent Cdc25B and PTP1B inhibitors” (Bioorg Med Chem Lett, 2014)
